# Experimental data published in PubChem BioAssay AID1845207 (Molecular Pharmacology Branch, DTP, NCI, 2023).
# Tested on: NCI-H1876 tumor spheroid viability
# Assay: Anticancer human tumor NCI-H1876 cell line growth inhibition;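 also: spheroids exposed to compounds for seven days before the viability read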;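 as to viability, T/C: percent of DMSO vehicle control viability so 100% = vehicle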
# Settings: spheroids with HUVEC and MSC; for IC50: curve of first compound; for viability, T/C: stronger effect = lower value
# Procedure, shortened: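 Complex spheroids of malignant cells with endothelial cells and mesenchymal stem cells; agents alone or combined, from near clinical Cmax (or 10 microM if unknown) down in half-log steps, 0.25% DMSO final.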
smiles,measurement,setting,value
[2H]c1nc(C)nc([2H])c1-c1cc(NC[C@@H](C)c2cccc3c(C(=O)NC)ccnc23)ncn1 + Cn1nnc2c(C(N)=O)ncn2c1=O,IC50,second compound 1 µM,> 10 µM
same,IC50,second compound 3.16 µM,> 10 µM
same,IC50,second compound 10 µM,> 10 µM
same,IC50,second compound 31.6 µM,> 10 µM
same,IC50,second compound 100 µM,> 10 µM
same,"viability, T/C","second compound 1 µM, first compound 0.0316 µM",98.1%
same,"viability, T/C","second compound 1 µM, first compound 0.1 µM",98.7%
same,"viability, T/C","second compound 1 µM, first compound 0.316 µM",101%
same,"viability, T/C","second compound 1 µM, first compound 1 µM",101%
same,"viability, T/C","second compound 1 µM, first compound 3.16 µM",86.8%
same,"viability, T/C","second compound 1 µM, first compound 10 µM",67.6%
same,"viability, T/C","second compound 3.16 µM, first compound 0.0316 µM",106%
same,"viability, T/C","second compound 3.16 µM, first compound 0.1 µM",104%
same,"viability, T/C","second compound 3.16 µM, first compound 0.316 µM",95.4%
same,"viability, T/C","second compound 3.16 µM, first compound 1 µM",106%
same,"viability, T/C","second compound 3.16 µM, first compound 3.16 µM",88.8%
same,"viability, T/C","second compound 3.16 µM, first compound 10 µM",77.2%
same,"viability, T/C","second compound 10 µM, first compound 0.0316 µM",104%
same,"viability, T/C","second compound 10 µM, first compound 0.1 µM",103%
same,"viability, T/C","second compound 10 µM, first compound 0.316 µM",106%
same,"viability, T/C","second compound 10 µM, first compound 1 µM",101%
same,"viability, T/C","second compound 10 µM, first compound 3.16 µM",89.3%
same,"viability, T/C","second compound 10 µM, first compound 10 µM",71.5%
same,"viability, T/C","second compound 31.6 µM, first compound 0.0316 µM",91.8%
same,"viability, T/C","second compound 31.6 µM, first compound 0.1 µM",55.8%
same,"viability, T/C","second compound 31.6 µM, first compound 0.316 µM",91.7%
same,"viability, T/C","second compound 31.6 µM, first compound 1 µM",95.5%
same,"viability, T/C","second compound 31.6 µM, first compound 3.16 µM",89.2%
same,"viability, T/C","second compound 31.6 µM, first compound 10 µM",50.1%
same,"viability, T/C","second compound 100 µM, first compound 0.0316 µM",69.5%
same,"viability, T/C","second compound 100 µM, first compound 0.1 µM",76.9%
same,"viability, T/C","second compound 100 µM, first compound 0.316 µM",70.4%
same,"viability, T/C","second compound 100 µM, first compound 1 µM",66.2%
same,"viability, T/C","second compound 100 µM, first compound 3.16 µM",65.1%
same,"viability, T/C","second compound 100 µM, first compound 10 µM",58.3%
O=C(c1cc(Cc2n[nH]c(=O)c3ccccc23)ccc1F)N1CCN(C(=O)C2CC2)CC1 + Cn1nnc2c(C(N)=O)ncn2c1=O,IC50,second compound 1 µM,6.95 µM
same,IC50,second compound 3.16 µM,25.4 µM
same,IC50,second compound 10 µM,9.73 µM
same,IC50,second compound 31.6 µM,2.7 µM
same,IC50,second compound 100 µM,< 0.0949 µM
same,"viability, T/C","second compound 1 µM, first compound 0.0949 µM",85.1%
same,"viability, T/C","second compound 1 µM, first compound 0.3 µM",69.8%
same,"viability, T/C","second compound 1 µM, first compound 0.949 µM",77.8%
same,"viability, T/C","second compound 1 µM, first compound 3 µM",64.6%
same,"viability, T/C","second compound 1 µM, first compound 9.49 µM",32.2%
same,"viability, T/C","second compound 1 µM, first compound 30 µM",56.9%
same,"viability, T/C","second compound 3.16 µM, first compound 0.0949 µM",89.8%
same,"viability, T/C","second compound 3.16 µM, first compound 0.3 µM",82.4%
same,"viability, T/C","second compound 3.16 µM, first compound 0.949 µM",72.7%
same,"viability, T/C","second compound 3.16 µM, first compound 3 µM",61.5%
same,"viability, T/C","second compound 3.16 µM, first compound 9.49 µM",65.2%
same,"viability, T/C","second compound 3.16 µM, first compound 30 µM",45.1%
same,"viability, T/C","second compound 10 µM, first compound 0.0949 µM",79.2%
same,"viability, T/C","second compound 10 µM, first compound 0.3 µM",70.3%
same,"viability, T/C","second compound 10 µM, first compound 0.949 µM",64.6%
same,"viability, T/C","second compound 10 µM, first compound 3 µM",53.7%
same,"viability, T/C","second compound 10 µM, first compound 9.49 µM",60%
same,"viability, T/C","second compound 10 µM, first compound 30 µM",17.2%
same,"viability, T/C","second compound 31.6 µM, first compound 0.0949 µM",75.3%
same,"viability, T/C","second compound 31.6 µM, first compound 0.3 µM",69.4%
same,"viability, T/C","second compound 31.6 µM, first compound 0.949 µM",53.3%
same,"viability, T/C","second compound 31.6 µM, first compound 3 µM",55.7%
same,"viability, T/C","second compound 31.6 µM, first compound 9.49 µM",32.9%
same,"viability, T/C","second compound 31.6 µM, first compound 30 µM",15.8%
same,"viability, T/C","second compound 100 µM, first compound 0.0949 µM",54.7%
same,"viability, T/C","second compound 100 µM, first compound 0.3 µM",31.5%
same,"viability, T/C","second compound 100 µM, first compound 0.949 µM",29.6%
same,"viability, T/C","second compound 100 µM, first compound 3 µM",62.5%
same,"viability, T/C","second compound 100 µM, first compound 9.49 µM",18.8%
same,"viability, T/C","second compound 100 µM, first compound 30 µM",15.7%
